Patent US10065963B2 (Incyte Corporation, priority 2015, dated 2018)
Structures can show the parent of a compound that is named as a salt. Where two headings read alike, the source gives them in different places.

Assays:
[1] = system: Phosphorylated Ribosomal Protein S6 (RPS6) in THP-1 cells; experiment: THP-1 RPS6 ELISA assay; type: cell-based, human; conditions: 10 nM MCP-1, read-out: PI3Kγ_THP1_RPS6_ELISA IC50
[2] = target: PI3Kγ (p110γ) Recombinant Human Protein (Homo sapiens (Human), UniProt P48736); experiment: PI3K-γ scintillation proximity assay; type: biochemical; conditions: 2 μM ATP, 20 μM PIP2
Sequence of PI3Kγ (p110γ) Recombinant Human Protein (P48736 whole entry): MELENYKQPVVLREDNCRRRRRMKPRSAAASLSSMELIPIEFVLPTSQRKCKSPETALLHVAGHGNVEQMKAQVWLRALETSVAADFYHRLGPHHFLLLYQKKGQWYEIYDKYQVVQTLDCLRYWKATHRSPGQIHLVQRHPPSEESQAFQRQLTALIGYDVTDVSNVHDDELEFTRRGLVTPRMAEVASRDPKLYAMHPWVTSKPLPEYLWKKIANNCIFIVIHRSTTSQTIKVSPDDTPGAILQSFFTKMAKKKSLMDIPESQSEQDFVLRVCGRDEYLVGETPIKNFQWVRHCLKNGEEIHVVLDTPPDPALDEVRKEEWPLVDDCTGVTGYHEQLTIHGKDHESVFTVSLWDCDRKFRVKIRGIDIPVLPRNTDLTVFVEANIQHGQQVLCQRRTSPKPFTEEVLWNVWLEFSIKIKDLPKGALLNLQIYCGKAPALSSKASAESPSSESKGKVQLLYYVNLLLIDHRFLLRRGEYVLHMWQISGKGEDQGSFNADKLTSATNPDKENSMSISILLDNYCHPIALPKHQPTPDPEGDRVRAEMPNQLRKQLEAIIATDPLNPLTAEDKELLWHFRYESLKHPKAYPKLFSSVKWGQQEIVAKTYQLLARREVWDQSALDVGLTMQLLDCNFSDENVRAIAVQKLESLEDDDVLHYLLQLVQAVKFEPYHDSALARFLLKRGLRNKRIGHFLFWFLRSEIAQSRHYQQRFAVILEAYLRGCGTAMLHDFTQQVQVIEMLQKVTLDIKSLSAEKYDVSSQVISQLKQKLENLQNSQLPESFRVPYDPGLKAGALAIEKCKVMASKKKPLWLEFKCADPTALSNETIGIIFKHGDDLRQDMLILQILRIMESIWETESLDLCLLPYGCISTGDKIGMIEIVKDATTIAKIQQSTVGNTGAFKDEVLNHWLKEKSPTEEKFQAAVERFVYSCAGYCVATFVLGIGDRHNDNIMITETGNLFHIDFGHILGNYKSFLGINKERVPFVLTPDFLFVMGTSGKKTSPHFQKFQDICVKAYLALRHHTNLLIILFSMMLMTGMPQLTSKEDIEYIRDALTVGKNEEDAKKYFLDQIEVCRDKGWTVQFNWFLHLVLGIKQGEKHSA

[3] = target: PI3Kδ (p110δ/p85α) Recombinant Human Protein (Homo sapiens (Human), UniProt O00329); experiment: PI3Kδ scintillation proximity assay; type: biochemical; conditions: 2 μM ATP, 20 μM PIP2
Sequence of PI3Kδ (p110δ/p85α) Recombinant Human Protein (O00329 whole entry): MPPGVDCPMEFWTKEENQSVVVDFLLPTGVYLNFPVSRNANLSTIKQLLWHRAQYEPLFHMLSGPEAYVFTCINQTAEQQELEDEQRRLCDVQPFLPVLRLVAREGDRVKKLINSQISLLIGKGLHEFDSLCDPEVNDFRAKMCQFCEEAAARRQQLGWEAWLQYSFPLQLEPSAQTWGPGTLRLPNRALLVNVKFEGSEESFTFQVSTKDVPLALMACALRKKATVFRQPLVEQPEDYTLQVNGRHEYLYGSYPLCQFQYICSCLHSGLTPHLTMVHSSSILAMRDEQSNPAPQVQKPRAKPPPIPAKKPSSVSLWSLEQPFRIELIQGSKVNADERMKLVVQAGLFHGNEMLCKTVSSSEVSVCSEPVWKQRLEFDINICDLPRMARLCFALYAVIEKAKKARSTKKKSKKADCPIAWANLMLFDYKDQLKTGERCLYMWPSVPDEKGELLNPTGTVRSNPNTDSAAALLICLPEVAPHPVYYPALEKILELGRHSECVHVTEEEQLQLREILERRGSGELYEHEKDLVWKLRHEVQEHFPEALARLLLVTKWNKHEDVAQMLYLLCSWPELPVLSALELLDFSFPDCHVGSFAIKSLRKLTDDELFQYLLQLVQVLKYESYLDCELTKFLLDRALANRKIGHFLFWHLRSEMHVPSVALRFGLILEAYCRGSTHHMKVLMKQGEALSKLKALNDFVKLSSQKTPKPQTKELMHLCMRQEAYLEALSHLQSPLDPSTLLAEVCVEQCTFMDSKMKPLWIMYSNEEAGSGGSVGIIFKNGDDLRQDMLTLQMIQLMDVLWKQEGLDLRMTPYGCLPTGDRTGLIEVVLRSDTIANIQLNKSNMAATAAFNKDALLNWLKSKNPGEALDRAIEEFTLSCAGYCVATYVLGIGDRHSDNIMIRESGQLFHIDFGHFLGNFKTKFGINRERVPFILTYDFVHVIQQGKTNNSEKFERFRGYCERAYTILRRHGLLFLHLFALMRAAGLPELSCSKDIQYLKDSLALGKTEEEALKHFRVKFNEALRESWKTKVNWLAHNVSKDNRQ
Sequence of PI3Kδ (p110δ/p85α) Recombinant Human Protein (P27986 whole entry partner): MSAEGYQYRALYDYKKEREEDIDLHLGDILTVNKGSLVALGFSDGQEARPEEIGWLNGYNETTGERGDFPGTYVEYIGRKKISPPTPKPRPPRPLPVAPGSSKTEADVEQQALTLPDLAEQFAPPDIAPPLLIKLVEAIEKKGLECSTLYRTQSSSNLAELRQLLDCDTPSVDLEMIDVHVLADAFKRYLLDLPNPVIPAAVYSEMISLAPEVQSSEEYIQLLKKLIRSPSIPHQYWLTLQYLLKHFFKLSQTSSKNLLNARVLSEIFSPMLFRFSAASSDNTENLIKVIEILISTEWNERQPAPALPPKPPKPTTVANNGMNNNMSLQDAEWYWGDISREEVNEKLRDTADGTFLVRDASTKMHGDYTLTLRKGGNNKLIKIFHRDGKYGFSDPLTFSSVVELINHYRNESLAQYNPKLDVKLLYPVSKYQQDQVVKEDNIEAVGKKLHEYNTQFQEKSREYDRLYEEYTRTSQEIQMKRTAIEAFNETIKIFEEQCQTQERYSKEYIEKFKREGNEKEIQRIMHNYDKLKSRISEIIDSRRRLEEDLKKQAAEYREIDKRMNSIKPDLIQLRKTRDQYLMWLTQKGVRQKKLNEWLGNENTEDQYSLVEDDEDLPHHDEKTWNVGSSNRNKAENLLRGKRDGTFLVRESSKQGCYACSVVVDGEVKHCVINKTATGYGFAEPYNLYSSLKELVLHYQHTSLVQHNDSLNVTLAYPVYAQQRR

[4] = Homo sapiens, THP-1, THP-1 cells

SMILES | IC50 [1, 4] [µM] | IC50 [2] [µM] | IC50 [3] [µM] | IC50 ([1]; THP-1 cells) [µM]
CC(NC(=O)c1c(N)nn2cccnc12)c1cc(Cl)c2c(Cl)cnn2c1N1CCS(=O)(=O)C(C)C1 (stereo not drawn) [Example 112A, 2-Amino-N-{1-[3,4-dichloro-7-(2-methyl-1,1-dioxidothiomorpholin-4-yl)pyrazolo[1,5-a]pyridin-6-yl]ethyl}pyrazolo[1,5-a]pyrimidine-3-carboxamide trifluoroacetate] | < 0.5 | < 0.1 | < 0.1 | 
CC(NC(=O)c1c(N)nn2cccnc12)c1cc(Cl)c2c(Cl)cnn2c1N1CCS(=O)(=O)CC1 (stereo not drawn) [Example 113, 2-Amino-N-{1-[3,4-dichloro-7-(1,1-dioxidothiomorpholin-4-yl)pyrazolo[1,5-a]pyridin-6-yl]ethyl}pyrazolo[1,5-a]pyrimidine-3-carboxamide trifluoroacetate] | < 0.5 | < 0.1 | < 0.1 | 
CC(NC(=O)c1c(N)nn2cccnc12)c1cc(Cl)c2c(Cl)cnn2c1N1CCCS(=O)(=O)CC1 (stereo not drawn) [Example 114, 2-Amino-N-{1-[3,4-dichloro-7-(1,1-dioxido-1,4-thiazepan-4-yl)pyrazolo[1,5-a]pyridin-6-yl]ethyl}pyrazolo[1,5-a]pyrimidine-3-carboxamide trifluoroacetate] | < 0.5 | < 0.1 | < 0.1 | 
CC(NC(=O)c1c(N)nn2cccnc12)c1cc(Cl)c2c(Cl)cnn2c1N1CCS(=O)(=O)C(C)(C)C1 (stereo not drawn) [Example 116, 2-Amino-N-{1-[3,4-dichloro-7-(2,2-dimethyl-1,1-dioxidothiomorpholin-4-yl)pyrazolo[1,5-a]pyridin-6-yl]ethyl}pyrazolo[1,5-a]pyrimidine-3-carboxamide trifluoroacetate] | < 0.5 | < 0.1 | < 0.1 | 
COc1cncc(-c2c(C(C)NC(=O)c3c(N)nn4cccnc34)cc(Cl)c3cncn23)c1 (stereo not drawn) [Example 134, 2-Amino-N-{1-[8-chloro-5-(5-methoxypyridin-3-yl)imidazo[1,5-d]pyridin-6-yl]ethyl}pyrazolo[1,5-a]pyrimidine-3-carboxamide trifluoroacetate salt] |  | < 0.1 | < 0.5 | > 1
CC(NC(=O)c1c(N)nn2cccnc12)c1cc(Cl)c2cncn2c1N1C[C@H](O)C[C@H](O)C1 (stereo partly drawn) [Example 155B, 2-Amino-N-(1-{8-chloro-5-[(3R,5S)-3,5-dihydroxypiperidin-1-yl]imidazo[1,5-a]pyridin-6-yl}ethyl)pyrazolo[1,5-a]pyrimidine-3-carboxamide trifluoroacetate salt] | < 0.5 | < 0.1 | < 0.1 | 
CC(NC(=O)c1c(N)nn2cccnc12)c1cc(Cl)c2cncn2c1N1C[C@@H](O)C[C@@H](F)C1 (stereo partly drawn) [Example 156, 2-Ammo-N-(1-{8-chloro-5-[(3R,5S)-3-fluoro-5-hydroxypiperidin-1-yl]imidazo[1,5-a]pyridin-6-yl}ethyl)pyrazolo[1,5-a]pyrimidine-3-carboxamide trifluoroacetate salt] |  | < 0.1 | < 2 | < 1
Nc1nn2cccnc2c1C(=O)NCc1cc(Cl)c2cncn2c1N1CCS(=O)(=O)CC1 [Example 166, 2-Amino-N-{[8-chloro-5-(1,1-dioxidothiomorpholin-4-yl)imidazo[1,5-a]pyridin-6-yl]methyl}pyrazolo[1,5-a]pyrimidine-3-carboxamide trifluoroacetate salt] | < 1 | < 0.1 | < 2 | 
CC1(C)CN(c2c(CNC(=O)c3c(N)nn4cccnc34)cc(Cl)c3cncn23)CCS1(=O)=O [Example 168, 2-Amino-N-((8-chloro-5-(2,2-dimethyl-1,1-dioxido-thiomorpholino)imidazo[1,5-a]pyridin-6-yl)methyl) pyrazolo[1,5-a] pyrimidine-3-carboxamide trifluoroacetate salt] |  | < 0.1 | < 2 | > 1
Nc1nn2cccnc2c1C(=O)NCc1cc(Cl)c2c(Cl)ncn2c1N1CCCC1 [Example 172, 2-Amino-N-((1,8-dichloro-5-(pyrrolidin-1-yl)imidazo[1,5-a]pyridin-6-yl)methyl)pyrazolo[1,5-a]pyrimidine-3-carboxamidetrifluoroacetate salt] | < 1 | < 0.1 | < 0.5 | 
N#Cc1ncn2c(N3CCCC3)c(CNC(=O)c3c(N)nn4cccnc34)cc(Cl)c12 [Example 173, 2-Amino-N-((8-chloro-1-cyano-5-(pyrrolidin-1-yl)imidazo[1,5-a]pyridin-6-yl)methyl)pyrazolo[1,5-a]pyrimidine-3-carboxamide trifluoroacetate salt] | > 1 | < 0.5 | < 2 | 
CC1CN(c2c(CNC(=O)c3c(N)nn4cccnc34)cc(Cl)c3c(C#N)ncn23)CCS1(=O)=O (stereo not drawn) [Example 174, 2-Amino-N-((8-chloro-1-cyano-5-(2-methyl-1,1-dioxidothiomorpholino)imidazo[1,5-a]pyridin-6-yl)methyl)pyrazolo[1,5-a]pyrimidine-3-carboxamide trifluoroacetate salt] | > 1 | < 0.1 | < 2 | 

Further lines, results first:

IC50 [1, 4] [µM] | IC50 [2] [µM] | IC50 [3] [µM] | IC50 ([1]; THP-1 cells) [µM] | SMILES
< 0.5 | < 0.1 | < 0.1 |  | CC(NC(=O)c1c(N)nn2cccnc12)c1cc(Cl)c2c(Cl)cnn2c1N1CCNS(=O)(=O)CC1 (stereo not drawn) [Example 115, 2-Amino-N-{1-[3,4-dichloro-7-(1,1-dioxido-1,2,5-thiadiazepan-5-yl)pyrazolo[1,5-a]pyridin-6-yl]ethyl}pyrazolo[1,5-a]pyrimidine-3-carboxamide trifluoroacetate]
< 0.5 | < 0.1 | < 0.5 |  | COC1CCN(c2c(C(C)NC(=O)c3c(N)nn4cccnc34)cc(Cl)c3cncn23)C1 (stereo not drawn) [Example 144, 2-Amino-N-{1-[8-chloro-5-(3-methoxypyrrolidin-1-yl)imidazo[1,5-a]pyridin-6-yl]ethyl}pyrazolo[1,5-a]pyrimidine-3-carboxamide trifluoroacetate salt]
< 0.5 | < 0.5 | < 0.5 |  | CC(NC(=O)c1c(N)nn2cccnc12)c1cc(Cl)c2cncn2c1N1CCC(O)C1 (stereo not drawn) [Example 148, 2-Amino-N-{1-[8-chloro-5-(3-hydroxy-pyrrolidin-1-yl)imidazo[1,5-a]pyridin-6-yl]ethyl}pyrazolo [1,5-a]pyrimidine-3-carboxamide trifluoroacetate salt]
 | < 0.1 | < 0.1 | < 0.5 | CC(NC(=O)c1c(N)nn2cccnc12)c1cc(Cl)c2cncn2c1N1C[C@@H](O)C[C@H](O)C1 (stereo partly drawn) [Example 150, 2-Amino-N-(1-{8-chloro-5-[(3S,5S)-3,5-dihydroxypiperidin1-yl]imidazo[1,5-a]pyridin-6-yl}ethyl)pyrazol[1,5-a]pyrimidine-3-carboxamide trifluoroacetate salt]
 | < 0.1 | < 0.1 | < 0.5 | CC(NC(=O)c1c(N)nn2cccnc12)c1cc(Cl)c2cncn2c1N1CCCC(O)C1 (stereo not drawn) [Example 152, 2-Amino-N-(1-{8-chloro-5-[(3)-3-hydroxypiperidin-1-yl]imidazo[1,5-a]pyridin-6-yl}ethyl)pyrazolo[1,5-a]pyrimidine-3-carboxamide trifluoroacetate salt]
 | < 0.1 | < 0.1 | < 0.5 | CC(NC(=O)c1c(N)nn2cccnc12)c1cc(Cl)c2cncn2c1N1CCC(C#N)CC1 (stereo not drawn) [Example 153, 2-Amino-N-{1-[8-chloro-5-(4-cyanopiperidin-1-yl)imidazo[1.5-a]pyridin-6-yl]ethyl}pyrazolo[1,5-a]pyrimidine-3-carboxamide trifluoroacetate salt]
< 1 | < 0.1 | < 0.5 |  | CC(NC(=O)c1c(N)nn2cccnc12)c1cc(Cl)c2cncn2c1N1C[C@H](O)C[C@H](C#N)C1 (stereo partly drawn) [Example 157, 2-Amino-N-(1-{8-chloro-5-[(3S,5R)-3-cyano-5-hydroxypiperidin-1-yl]imidazo[1,5-a]pyridin-6-yl}ethyl)pyrazolo[1,5-a]pyrimidine-3-carboxamide trifluoroacetate salt]
< 0.5 | < 0.1 | < 2 |  | CC(NC(=O)c1c(N)nn2cccnc12)c1cc(Cl)c2c(C#N)ncn2c1N1CCS(=O)(=O)C(C)C1 (stereo not drawn) [Example 165, 2-Amino-N-(1-(8-chloro-1-cyano-5-(2-methyl-1,1-dioxidothiomorpholino)imidazo[1,5-a]pyridin-6-yl)ethyl)pyrazolo[1,5-a]pyrimidine-3-carboxamide trifluoroacetate salt]
 | < 0.1 | < 2 | > 1 | CC1(C)CN(c2c(CNC(=O)c3c(N)nn4cccnc34)cc(Cl)c3c(Cl)ncn23)CCS1(=O)=O [Example 170, 2-Amino-N-((1,8-dichloro-5-(2,2-dimethyl-1,1-dioxidothio-morpholino)imidazo [1,5-a]pyridin-6-yl)methyl) pyrazolo[1,5-a] pyrimidine-3-carboxamide trifluoroacetate salt]
> 1 | < 0.1 | < 0.5 |  | Nc1nn2cccnc2c1C(=O)NCc1cc(Cl)c2cncn2c1N1CCCC1 [Example 171, 2-Amino-N-((8-chloro-5-(pyrrolidin-1-yl)imidazo[1,5-a]pyridin-6-yl)methyl)pyrazolo[1,5-a]pyrimidine-3-carboxamide trifluoroacetate salt]
< 0.5 | < 0.1 | < 2 |  | CCC(NC(=O)c1c(N)nn2cccnc12)c1cc(Cl)c2c(C#N)ncn2c1N1CCS(=O)(=O)C(C)C1 (stereo not drawn) [Example 175, 2-Amino-N-(1-(8-chloro-1-cyano-5-(2-methyl-1,1-dioxidothiomorpholino)imidazo[1,5-a]pyridin-6-yl)propyl)pyrazolo[1,5-a]pyrimidine-3-carboxamide trifluoroacetate salt]
